Reference: patent US20200024278A1, “COMPOSITION COMPRISING ANTIBIOTIC COMPOUND AND AN HETEROCYCLIC COMPOUND AND THEIR USE IN PREVENTING OR TREATING BACTERIAL INFECTIONS” (MUTABILIS, priority 2016, published 2020)
Like-named read-outs stand apart in the source and are kept apart here.

What was measured:
Experiment in all cases: MIC, broth microdilution (CLSI), substance alone or ATB combined with compound at 4 or 8 μg/mL
ECO 190317 = assay type: cell-based, E. coli; conditions: ECO 190317; for MIC: Escherichia coli
In short: (§1)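 Potentiation format: antibiotic dilution series run with test compound held at 4 or 8 μg/mL, alongside compound-alone MICs. Broth microdilution per CLSI in ca-MHB, 16-20 h at 35° C.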

ECO UFR39 = assay type: cell-based, E. coli; conditions: ECO UFR39
In short: as §1

KPN 6299 = assay type: cell-based, K. pneumoniae; conditions: for MIC: Klebsiella pneumoniae
In short: as §1

KPN BAA-1898 = assay type: cell-based, K. pneumoniae; conditions: KPN BAA-1898; for MIC: Klebsiella pneumoniae, BAA1898
In short: as §1

KPN UFR42 = assay type: cell-based, K. pneumoniae; conditions: KPN UFR42
In short: as §1

ECL P99 = assay type: cell-based, E. cloacae; conditions: ECL P99
In short: as §1

[1] = antibiotic alone, read-out: MIC ATB alone

In the case of `COCC1=C(C(=O)O)N2C(=O)[C@@H](NC(=O)/C(=N\OC)c3csc(N)n3)[C@H]2SC1` [POD, Cefpodoxime, reference compound], the “MIC ATB combined with Example 1 @8 μg/ml” value (ECO 190317; with Example 1 at 8 μg/ml) is reported as less than 0.031 µg/mL, the “MIC ATB combined with Example 7 @8 μgml” value (ECO 190317; with Example 7 at 8 μg/ml) is reported as less than 0.031 µg/mL and the “MIC ATB combined with Example 9 @4 μg/ml” value (ECO 190317; with Example 9 at 4 μg/ml) is reported as less than 0.031 µg/mL. The “MIC ATB combined with Example 11 @8 μg/ml” value (ECO 190317; with Example 11 at 8 μg/ml) was less than 0.031 µg/mL, the “MIC ATB combined with Example 12 @8 μg/ml” value (ECO 190317; with Example 12 at 8 μg/ml) was less than 0.031 µg/mL and the “MIC ATB combined with Example 13 @8 μg/ml” value (ECO 190317; with Example 13 at 8 μg/ml) was less than 0.031 µg/mL. The “MIC ATB combined with Example 14 @8 μg/ml” value (ECO 190317; with Example 14 at 8 μg/ml) was less than 0.031 µg/mL, the “MIC ATB combined with Example 15 @4 μgml” value (ECO 190317; with Example 15 at 4 μg/ml) was less than 0.031 µg/mL and the “MIC ATB combined with Example 16 @4 μg/ml” value (ECO 190317; with Example 16 at 4 μg/ml) was less than 0.031 µg/mL. The MIC (ECO 190317; [1]) was greater than 512 µg/mL, the MIC (ECO 190317; substance alone, read-out: MIC) was greater than 512 µg/mL and the “MIC ATB combined with Example 1 @8 μg/ml” value (ECO UFR39; with Example 1 at 8 μg/ml) was less than 0.031 µg/mL. The “MIC ATB combined with Example 7 @8 μgml” value (ECO UFR39; with Example 7 at 8 μg/ml) was less than 0.031 µg/mL, the “MIC ATB combined with Example 9 @4 μg/ml” value (ECO UFR39; with Example 9 at 4 μg/ml) was less than 0.031 µg/mL and the “MIC ATB combined with Example 11 @8 μg/ml” value (ECO UFR39; with Example 11 at 8 μg/ml) was less than 0.031 µg/mL. For the same compound, the “MIC ATB combined with Example 12 @8 μg/ml” value (ECO UFR39; with Example 12 at 8 μg/ml) was less than 0.031 µg/mL, the “MIC ATB combined with Example 13 @8 μg/ml” value (ECO UFR39; with Example 13 at 8 μg/ml) was less than 0.031 µg/mL and the “MIC ATB combined with Example 14 @8 μg/ml” value (ECO UFR39; with Example 14 at 8 μg/ml) was less than 0.031 µg/mL. The “MIC ATB combined with Example 15 @4 μgml” value (ECO UFR39; with Example 15 at 4 μg/ml) was less than 0.031 µg/mL, the “MIC ATB combined with Example 16 @4 μg/ml” value (ECO UFR39; with Example 16 at 4 μg/ml) was less than 0.031 µg/mL and the MIC (ECO UFR39; Escherichia coli, antibiotic alone, read-out: MIC ATB alone) was greater than 256 µg/mL. For the same compound, the MIC (KPN 6299; [1]) was 64 µg/mL, the MIC (KPN 6299; substance alone, read-out: MIC) was 64 µg/mL and the “MIC ATB combined with Example 1 @8 μg/ml” value (KPN 6299; with Example 1 at 8 μg/ml) was 0.25 µg/mL. The “MIC ATB combined with Example 7 @8 μgml” value (KPN 6299; with Example 7 at 8 μg/ml) was 0.25 µg/mL, the “MIC ATB combined with Example 9 @4 μg/ml” value (KPN 6299; with Example 9 at 4 μg/ml) was less than 0.031 µg/mL and the “MIC ATB combined with Example 11 @8 μg/ml” value (KPN 6299; with Example 11 at 8 μg/ml) was less than 0.031 µg/mL. The “MIC ATB combined with Example 12 @8 μg/ml” value (KPN 6299; with Example 12 at 8 μg/ml) was less than 0.031 µg/mL, the “MIC ATB combined with Example 13 @8 μg/ml” value (KPN 6299; with Example 13 at 8 μg/ml) was 0.125 µg/mL and the “MIC ATB combined with Example 14 @8 μg/ml” value (KPN 6299; with Example 14 at 8 μg/ml) was less than 0.031 µg/mL. The “MIC ATB combined with Example 15 @4 μgml” value (KPN 6299; with Example 15 at 4 μg/ml) was less than 0.031 µg/mL, the “MIC ATB combined with Example 16 @4 μg/ml” value (KPN 6299; with Example 16 at 4 μg/ml) was less than 0.031 µg/mL and the “MIC ATB combined with Example 1 @8 μg/ml” value (KPN BAA-1898; with Example 1 at 8 μg/ml) was 1 µg/mL. The “MIC ATB combined with Example 7 @8 μgml” value (KPN BAA-1898; with Example 7 at 8 μg/ml) was 2 µg/mL, the “MIC ATB combined with Example 9 @4 μg/ml” value (KPN BAA-1898; with Example 9 at 4 μg/ml) was less than 0.031 µg/mL and the “MIC ATB combined with Example 11 @8 μg/ml” value (KPN BAA-1898; with Example 11 at 8 μg/ml) was less than 0.031 µg/mL. For the same compound, the “MIC ATB combined with Example 12 @8 μg/ml” value (KPN BAA-1898; with Example 12 at 8 μg/ml) was less than 0.031 µg/mL, the “MIC ATB combined with Example 13 @8 μg/ml” value (KPN BAA-1898; with Example 13 at 8 μg/ml) was 1 µg/mL and the “MIC ATB combined with Example 14 @8 μg/ml” value (KPN BAA-1898; with Example 14 at 8 μg/ml) was less than 0.031 µg/mL. The “MIC ATB combined with Example 15 @4 μgml” value (KPN BAA-1898; with Example 15 at 4 μg/ml) was less than 0.031 µg/mL, the “MIC ATB combined with Example 16 @4 μg/ml” value (KPN BAA-1898; with Example 16 at 4 μg/ml) was less than 0.031 µg/mL and the MIC (KPN BAA-1898; [1]) was greater than 512 µg/mL. The MIC (KPN BAA-1898; substance alone, read-out: MIC) was greater than 512 µg/mL, the “MIC ATB combined with Example 1 @8 μg/ml” value (KPN UFR42; with Example 1 at 8 μg/ml) was greater than 32 µg/mL and the “MIC ATB combined with Example 7 @8 μgml” value (KPN UFR42; with Example 7 at 8 μg/ml) was greater than 32 µg/mL. For the same compound, the “MIC ATB combined with Example 9 @4 μg/ml” value (KPN UFR42; with Example 9 at 4 μg/ml) was greater than 32 µg/mL, the “MIC ATB combined with Example 11 @8 μg/ml” value (KPN UFR42; with Example 11 at 8 μg/ml) was less than 0.031 µg/mL and the “MIC ATB combined with Example 12 @8 μg/ml” value (KPN UFR42; with Example 12 at 8 μg/ml) was less than 0.031 µg/mL. For the same compound, the “MIC ATB combined with Example 13 @8 μg/ml” value (KPN UFR42; with Example 13 at 8 μg/ml) was greater than 32 µg/mL, the “MIC ATB combined with Example 14 @8 μg/ml” value (KPN UFR42; with Example 14 at 8 μg/ml) was less than 0.031 µg/mL and the “MIC ATB combined with Example 15 @4 μgml” value (KPN UFR42; with Example 15 at 4 μg/ml) was less than 0.031 µg/mL. For the same compound, the “MIC ATB combined with Example 16 @4 μg/ml” value (KPN UFR42; with Example 16 at 4 μg/ml) was less than 0.031 µg/mL, the MIC (KPN UFR42; Klebsiella pneumoniae, antibiotic alone, read-out: MIC ATB alone) was greater than 256 µg/mL and the “MIC ATB combined with Example 1 @8 μg/ml” value (ECL P99; with Example 1 at 8 μg/ml) was “<=0.031 μg/mL”. The “MIC ATB combined with Example 7 @8 μgml” value (ECL P99; with Example 7 at 8 μg/ml) was 16 µg/mL and the “MIC ATB combined with Example 9 @4 μg/ml” value (ECL P99; with Example 9 at 4 μg/ml) was less than 0.031 µg/mL.
